Counter-ions that a name gives are not always drawn. Like-named read-outs stand apart in the source and are kept apart here.
Legend:
[1] = tested on: acutely dissociated and purified rat OPCs; experiment: Acute OL differentiation assay (MBP expression/cell, immunofluorescent image quantification); type: cell-based; conditions: for activation at 0.08 µM: test compound at 0.08 uM, read-out: 0.08 uM (% Quet); for activation at 0.4 µM: test compound at 0.4 uM, read-out: 0.4 uM (% Quet)
Experimental: In order to identify compounds with the potential to promote OL differentiation in vivo and thereby enhance remyelination, we first wanted to establish an in vitro assay system that would closely mimic conditions in vivo. To do this, we started by using OPCs acutely isolated from postnatal day 6–7 (P6–7) rat brains by O4 immunopanning. […] OPCs were plated directly onto a biological substrate (PDL/laminin) in 96-well view plates at moderate density to allow for sufficient room to expand processes during differentiation. We plated cells in serum-free medium lacking OPC mitogens (no PDGF or FGF) to allow a basal level of OL differentiation to commence, and as a positive control added thyroid hormone (T3, 40 ng/ml) to accelerate differentiation (Fig. 1, flow scheme).
Fig. 1 Flow scheme of the acute OL differentiation assay. a Purified oligodendrocyte precursor cells (OPCs) were cultured from P7 rat cortex and plated into PDL/laminin pre-coated 96-well plates. b One hour later test compounds were added. c OPC cultures with compound were maintained in culture for an additional 4 days. d On the 5th day with compound, cells were fixed and immunostained with anti-MBP antibodies and DAPI. e Images were acquired with automated fluorescence microscopy and scored phenotypically for OL differentiation (see “Methods” section)
To quantify the extent of OL differentiation occurring in treatment conditions, we measured the overall amount of MBP expression/cell (see “Methods” section). Figure 2a depicts the mask created over MBP staining under which the MBP expression was quantified. […]
All animal work was carried out in strict accordance with the recommendations in the Guide for the Care and Use of Laboratory Animals of the National Institutes of Health. The protocol was approved by the Institutional Use and Care and Use Committee at the Molecular Medicine Research Institute (Sunnyvale, CA). Animals used for OPC isolation in these studies were euthanized by decapitation. OPCs from brains of P6-P7 Sprague–Dawley rat pups (Charles River, Wilmington, MA, USA) were enriched by immunopanning as previously described (Dugas et al. 2006). Briefly, single cell suspensions were obtained from papain-digested neonatal brains and depleted of mature glial cells by successive panning with RAN-2- and GalC-coated plates, followed by enrichment for OPCs using O4-coated plates. OPCs were plated in differentiation media (DMEM, 100 U/ml Penicillin/100 µg/ml streptomycin, 2 mM L-glutamine, 1 mM Na pyruvate, 5 µg/ml insulin, 5 µg/ml N-acetyl-L-cysteine, 1× trace elements B,10 ng/ml d-Biotin, 100 µg/ml BSA, 100 µg/ml apo-transferrin, 16 µg/ml putrescine, 60 ng/ml progesterone, 40 ng/ml sodium selenite 5 ng/ml forskolin, 10 ng/ml CNTF, 1 ng/ml NT-3).
Acutely enriched OPCs were plated in differentiation media at 5000 cells/well into PDL/laminin coated 96-well view plates and centrifuged at 200×g to facilitate cell attachment, survival, and even distribution of OPCs. OPCs were pre-incubated for 1–2 h at 37 °C in 10 % CO2, followed by the addition of test compounds in quadruplicate. Controls were added in eight replicate wells, negative control = 0.1 % DMSO; positive control = 40 ng/ml T3. The day of OPC plating was considered DIV0. On DIV4, cells were fixed, immunostained for myelin basic protein (MBP) expression, imaged and quantified as described below.

expanded OPCs = experiment: cells; conditions: for viability at 0.1 µM / viability at 1 µM / viability at 10 µM: Rattus norvegicus, 72 h
Experimental: Having established a consistent assay for measuring OL differentiation in vitro, the next step was to utilize this assay to assess the ability of a wide array of compounds to promote OL differentiation. Prior to library screening, we first established the maximum non-toxic dose of each compound in the library. […] Therefore, we added each compound in the NIH clinical collection (NCC) library to OPCs at 10, 1, and 0.1 µM concentrations. Three days later, we assessed viability of the treated cells by measuring AlamarBlue fluorescence, a measure of cell viability (see “Methods” section). […] Appropriately, we established three sets of screening concentrations for library compounds: non-toxic compounds were tested at 10 and 2 µM, slightly toxic compounds (only toxic at 10 µM) were tested at 2 and 0.4 µM, and very toxic compounds were tested at 0.4 and 0.08 µM.
OPCs were expanded in vitro by seeding into PDL-coated tissue culture flasks at 1000–2000 cells/cm^2 in differentiation media supplemented with 10 ng/ml PDGF-AA. Proliferating OPCs were fed every 2–3 days and supplemented with 2–3× concentration of PDGF as needed to prevent OPC differentiation. After 6–7 days of proliferation, OPCs were harvested by trypsinization, plated into PDL-coated 96-well Falcon plates and centrifuged at 200×g to facilitate cell attachment, survival, and even distribution of cells. Expanded OPCs were seeded in differentiation media at 10,000 cells/well and incubated for 2 h at 37 °C, 10 % CO2 prior to addition of compounds. The NCC library was diluted and added to cells at 10, 1, and 0.1 µM; each concentration was tested in quadruplicate. As a positive control for the induction of toxicity, 5 ng/ml tunicamycin was added to 8 wells in each plate. Three days later, a 1:10 dilution of alamarBlue® (AB) was added to each well and cells were incubated 4 h at 37 °C, 10 % CO2. AB fluorescence was measured using a PerkinElmer Victor II fluorescence microplate reader (PerkinElmer, Waltham, MA) with 560 nm excitation/590 nm emission filters. For library screening, the highest concentration of each compound was adjusted to a minimally toxic concentration based on this toxicity data. Compounds were additionally tested at a second concentration that was 1/5th of the top concentration. The final concentration of DMSO in each well was 0.1 %.

[2] = Rattus norvegicus, MBP expression relative to quetiapine, NCC library screen, sheet "All OLga data"
[3] = alamarBlue viability of expanded OPCs, compound at 0.1 µM, relative to DMSO control
[4] = alamarBlue viability of expanded OPCs, compound at 1 µM, relative to DMSO control
[5] = alamarBlue viability of expanded OPCs, compound at 10 µM, relative to DMSO control
[6] = Rattus norvegicus, 2 uM test compound, relative to quetiapine, sheet "All OLga data", read-out: OL differentiation, 2 uM (% Quet)
[7] = Rattus norvegicus, 10 uM test compound, relative to quetiapine, sheet "All OLga data", read-out: OL differentiation, 10 uM (% Quet)
[8] = read-out: 0.1 µM (% DMSO), alamarBlue viability of expanded OPCs, compound at 0.1 µM, sheet All Tox data
[9] = read-out: 1 µM (% DMSO), alamarBlue viability of expanded OPCs, compound at 1 µM, sheet All Tox data
[10] = read-out: 10 µM (% DMSO), alamarBlue viability of expanded OPCs, compound at 10 µM, sheet All Tox data
[11] = Rattus norvegicus, test compound at 2 uM, MBP expression relative to quetiapine, NCC library screen, sheet "All OLga data", read-out: 2 uM (% Quet)
[12] = Rattus norvegicus, test compound at 10 uM, MBP expression relative to quetiapine, NCC library screen, sheet "All OLga data", read-out: 10 uM (% Quet)
[13] = Rattus norvegicus, test compound at 2 uM, NCC library screen, sheet "All OLga data", relative to quetiapine, read-out: 2 uM (% Quet)
[14] = Rattus norvegicus, test compound at 10 uM, NCC library screen, sheet "All OLga data", relative to quetiapine, read-out: 10 uM (% Quet)
[15] = read-out: 0.1 µM (% DMSO), alamarBlue viability, NCC library compound at 0.1 µM, sheet "All Tox data"
[16] = read-out: 1 µM (% DMSO), alamarBlue viability, NCC library compound at 1 µM, sheet "All Tox data"
[17] = read-out: 10 µM (% DMSO), alamarBlue viability, NCC library compound at 10 µM, sheet "All Tox data"
[18] = Rattus norvegicus, NCC library screen, sheet "All OLga data", relative to quetiapine

SMILES | 0.1 µM (% DMSO) (expanded OPCs; [3]) | 1 µM (% DMSO) (expanded OPCs; [4]) | 10 µM (% DMSO) (expanded OPCs; [5]) | activation at 2 µM [1, 6] [%] | activation at 10 µM [1, 7] [%] | viability at 0.1 µM (expanded OPCs; [8]) [%] | viability at 1 µM (expanded OPCs; [9]) [%] | viability at 10 µM (expanded OPCs; [10]) [%] | further results
CNCCC(Oc1ccc(C(F)(F)F)cc1)c1ccccc1 (stereo not drawn) [Fluoxetine hydrochloride] | 77.4 | 42.2 | 7.9 |  |  |  |  |  | activation at 0.08 µM [1, 2]: 13%; activation at 0.4 µM [1, 2]: 10.7%
COc1cc(C)c(Cc2cnc(N)nc2N)cc1OC [Ormetoprim] |  |  |  | -23.4 | -8.2 | 101 | 91 | 95.4 | 
C[C@H]1c2cccc(O)c2C(=O)C2=C(O)[C@]3(O)C(=O)C(C(N)=O)=C(O)[C@@H](N(C)C)[C@@H]3[C@@H](O)[C@@H]21 [Doxycycline] | 95.2 | 91.4 | 82.8 |  |  |  |  |  | activation at 2 µM [1, 11]: 4.2%; activation at 10 µM [1, 12]: -18.6%
c1ccc2c3c([nH]c2c1)CNCC3 [Tryptoline] |  |  |  |  |  |  |  |  | activation at 2 µM [1, 13]: -12.9%; activation at 10 µM [1, 14]: -20.7%; viability at 0.1 µM (expanded OPCs; [15]): 103%; viability at 1 µM (expanded OPCs; [16]): 92.4%; viability at 10 µM (expanded OPCs; [17]): 62.6%
CN1C(C(=O)Nc2ccccn2)=C(O)c2ccccc2S1(=O)=O [Piroxicam] |  |  |  |  |  |  |  |  | activation at 2 µM [1, 13]: 12.1%; activation at 10 µM [1, 14]: -2.1%; viability at 0.1 µM (expanded OPCs; [15]): 91.3%; viability at 1 µM (expanded OPCs; [16]): 88.3%; viability at 10 µM (expanded OPCs; [17]): 87.1%
Nc1c2c(nc3c1CCC3)CCCC2 [Amiridine] |  |  |  |  |  |  |  |  | OL differentiation, 2 uM (% Quet) ([1]; 2 uM test compound, relative to quetiapine, sheet "All OLga data"): 7.6 % Quet; OL differentiation, 10 uM (% Quet) ([1]; 10 uM test compound, relative to quetiapine, sheet "All OLga data"): 34.5 % Quet; 0.1 µM (% DMSO) (expanded OPCs; alamarBlue viability of expanded OPCs, compound at 0.1 µM, sheet All Tox data): 87.3 % DMSO; 1 µM (% DMSO) (expanded OPCs; alamarBlue viability of expanded OPCs, compound at 1 µM, sheet All Tox data): 86.4 % DMSO; 10 µM (% DMSO) (expanded OPCs; alamarBlue viability of expanded OPCs, compound at 10 µM, sheet All Tox data): 89.5 % DMSO
COc1ccc(/C=C/C(=O)Nc2ccccc2C(=O)O)cc1OC [Tranilast] |  |  |  | 5.9 | -18.5 | 90.5 | 90 | 85.8 | 
CC(C)c1ccc2oc3nc(N)c(C(=O)O)cc3c(=O)c2c1 [Amlexanox] |  |  |  | -11.6 | -20 | 84.3 | 88.6 | 91.9 | 
O=P1(N(CCCl)CCCl)NCCCO1 (stereo not drawn) [Cyclophosphamide] |  |  |  |  |  |  |  |  | activation at 2 µM ([1]; Rattus norvegicus, read-out: 2 uM (% Quet)): 16.5%; activation at 10 µM ([1]; Rattus norvegicus, read-out: 10 uM (% Quet)): 5.1%; 0.1 µM (% DMSO) (expanded OPCs; rat): 90.6 % DMSO; 1 µM (% DMSO) (expanded OPCs; rat): 100.6 % DMSO; 10 µM (% DMSO) (expanded OPCs; rat): 97.0 % DMSO
CN(C)CCCC1(c2ccc(F)cc2)OCc2cc(C#N)ccc21 (stereo not drawn) [Nitalapram, reference compound] | 107.3 | 108.9 | 99.4 | 33 | 46.5 | 85.9 | 101 | 110 | activation at 2 µM [1, 11]: 30.4%; activation at 2 µM [1, 13]: 37.5%; activation at 10 µM [1, 12]: 6.5%; activation at 10 µM [1, 14]: 38.6%; EC50 ([1]; Rattus norvegicus, average EC50 for induction of OL differentiation from independent biological replicates, eight concentrations): 1.1 µM; hit in OL differentiation assay, MRF-TMC ([1]; ● = confirmed hit in this paper's assay): ●; viability at 0.1 µM (expanded OPCs; [15]): 95.9%; viability at 1 µM (expanded OPCs; [16]): 94.9%; viability at 10 µM (expanded OPCs; [17]): 91.9%
Cc1cccc(C)c1OCC(C)N (stereo not drawn) [Mexiletine] | 91.7 | 86.5 | 72.1 |  |  |  |  |  | activation at 2 µM [1, 11]: -15.2%; activation at 10 µM [1, 12]: -7.4%
Clc1ccc(COC(Cn2ccnc2)c2ccc(Cl)cc2Cl)c(Cl)c1 (stereo not drawn) [Miconazole] | 91.9 | 108.6 | 9.2 |  |  |  |  |  | activation at 0.4 µM [1, 18]: 43.2%
CS(=O)(=O)c1ccc(C2=C(c3ccccc3)C(=O)OC2)cc1 [Rofecoxib] |  |  |  | -10.8 | -9 | 91.5 | 97.2 | 115 | 
COc1c2occc2cc2ccc(=O)oc12 [Methoxsalen] | 88.8 | 90.5 | 85.4 |  |  |  |  |  | activation at 2 µM [1, 11]: -13.9%; activation at 10 µM [1, 12]: -33.3%
CC[C@]1(O)C[C@@H]2CN(CCc3c([nH]c4ccccc34)[C@@](C(=O)OC)(c3cc4c(cc3OC)N(C)[C@H]3[C@@](O)(C(N)=O)[C@H](O)[C@]5(CC)C=CCN6CC[C@]43[C@@H]65)C2)C1 [Vindesine] |  |  |  |  |  |  |  |  | activation at 0.08 µM [1, 18]: -193%; viability at 1 µM (expanded OPCs; [16]): 11.4%; viability at 10 µM (expanded OPCs; [17]): 9.2%
